In patent US20240182453A1, “NOVEL SUBSTITUTED PYRAZINE-CARBOXAMIDE DERIVATIVES” (Boehringer Ingelheim International GmbH, priority 2022, published 2024):

Biological target: human metabotropic Glutamate 4 receptor (mGluR4) (Homo sapiens (Human), UniProt Q14833)
Test: Assay A: in vitro testing of mGluR4 potency (glutamate-induced cAMP lowering, HTRF cAMP)
Format: cell-based
Conditions: HEK293 cells overexpressing human mGluR4; 10 uM L-glutamic acid, 1 uM forskolin; compounds of the present invention
Protocol: A. In Vitro Testing of mGluR4 Potency
The in vitro activity of the compounds according to the invention may be investigated as follows:
The HEK293 cell overexpressing the human metabotropic Glutamate 4 receptor are thawed at 37° C. and immediately diluted with cell culture medium. After centrifugation, the cell pellet is re-suspended in medium and then distributed from a stirred spinner flask into the wells of the assay plate. The plates are incubated for one hour at room temperature before they are incubated for 24 hours at 37° C./5% CO2. After washing the cells in the plate three times with 80 uL HBSS/HEPES buffer (10 uL buffer remained in the wells after washing), 5 uL per well of compounds diluted in HBSS/HEPES buffer containing 0.2% BSA (final concentration: 0.1%) and 1 mM IBMX (final concentration: 0.5 mM) are added to the wells of the assay plate. Thereafter 5 uL per well of L-Glutamic acid (final concentration: 10 uM), forskolin (final concentration: 1 uM) and 1 mM IBMX (final concentration: 0.5 mM) dissolved in HBSS/HEPES buffer containing 0.2% BSA (final concentration: 0.1%) are added to the assay plate (final DMSO concentration: 1%). Several wells of the assay plate are used either for the positive and the negative controls or for the cAMP standard curve. The assay plate is incubated for 30 minutes at room temperature. Then 5 ul per well of Anti-cAMP-Antibody-d2 solution and 5 ul per well of cAMP-Europium Cryptate dilution are added to all wells of the plate and the plate is incubated another 60 minutes light protected at room temperature. The emission at 615 nm and 665 nm (Excitation wavelength: 320 nm) are measured on the EnVision™ reader (Perkin Elmer). The ratio between the emission at 665 nm and 615 is calculated by the reader. The whole assay is performed in the dark or under green light.
The cAMP standard is prepared by diluting the cAMP stock solution with HBSS/Hepes buffer: 5 μl/well of the cAMP dilutions (in HBSS/Hepes buffer containing 1 mM IBMX and 0.2% BSA—final concentration: 0.5 mM IBMX and 0.1% BSA) are added to 10 ul/well HBSS/Hepes buffer plus 5 ul/well 4% DMSO in HBSS/Hepes containing 0.2% BSA (final DMSO concentration: 1%—like in the wells containing compounds) in the wells of the assay plate. The final cAMP concentrations in the assay plate are: 0, 0.17, 0.69, 2.78, 11.1, 44.5, 178, and 712 nM (two wells/cAMP concentration).
Each assay microtiter plate contained also wells with vehicle controls instead of compound as controls for L-Glutamic acid induced signal (negative control; 100% CTL; 10 uM L-Glutamic acid+1 uM forskolin+0.5 mM IBMX+1% DMSO) and wells with vehicle controls without L-Glutamic acid as controls for non-specific changes in signal (positive control; 0% CTL; 0 uM L-Glutamic acid+1 uM forskolin+0.5 mM IBMX+1% DMSO).
The analysis of the data is performed by the calculation the ratio between the emission at 665 nm and the emission at 615 nm (Em665/Em615 ratio). Thereafter the signals of the compounds are normalized using the positive and negative controls by the following formula:
PoC=100×((Signal Sample−Positive Control)/(Negative Control−Positive Control))

human metabotropic Glutamate 4 receptor (mGluR4), sequence (Q14833 33-912): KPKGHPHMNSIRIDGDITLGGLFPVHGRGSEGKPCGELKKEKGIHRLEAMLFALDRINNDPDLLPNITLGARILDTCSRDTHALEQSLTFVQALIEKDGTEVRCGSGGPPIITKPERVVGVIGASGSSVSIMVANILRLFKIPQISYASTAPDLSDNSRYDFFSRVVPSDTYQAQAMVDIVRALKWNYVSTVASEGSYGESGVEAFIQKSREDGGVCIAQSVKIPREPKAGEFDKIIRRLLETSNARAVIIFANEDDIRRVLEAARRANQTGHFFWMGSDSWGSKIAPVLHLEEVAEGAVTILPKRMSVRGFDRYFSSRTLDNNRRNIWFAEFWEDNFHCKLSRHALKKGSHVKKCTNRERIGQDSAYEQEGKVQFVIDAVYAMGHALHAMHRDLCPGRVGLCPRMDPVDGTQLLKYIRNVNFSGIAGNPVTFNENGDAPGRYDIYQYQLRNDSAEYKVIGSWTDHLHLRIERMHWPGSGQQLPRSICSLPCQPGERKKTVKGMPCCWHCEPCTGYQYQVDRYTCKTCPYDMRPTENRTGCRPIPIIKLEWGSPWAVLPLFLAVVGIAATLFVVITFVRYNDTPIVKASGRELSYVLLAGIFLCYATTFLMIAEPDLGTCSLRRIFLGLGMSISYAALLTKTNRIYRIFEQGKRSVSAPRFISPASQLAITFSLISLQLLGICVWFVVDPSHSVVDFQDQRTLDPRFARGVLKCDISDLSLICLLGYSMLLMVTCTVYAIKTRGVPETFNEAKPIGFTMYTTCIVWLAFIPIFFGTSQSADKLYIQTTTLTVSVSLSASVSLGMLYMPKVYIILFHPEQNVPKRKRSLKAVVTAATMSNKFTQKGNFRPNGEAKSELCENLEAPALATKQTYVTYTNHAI

COCCn1c([C@H](CC2CC2)NC(=O)c2cnc(C)cn2)nc2cc(F)ccc21 [Example 24, N-[(1S)-2-cyclopropyl-1-[5-fluoro-1-(2-methoxyethyl)-1H-1,3-benzodiazol-2-yl]ethyl]-5-methylpyrazine-2-carboxamide]
IC50: 7 nM

CCn1c([C@@H](NC(=O)c2cnc(C)cn2)C2CC2)nc2cc(Cl)ccc21 [Example 25, N-[(S)-(5-chloro-1-ethyl-1H-1,3-benzodiazol-2-yl)(cyclopropyl)methyl]-5-methylpyrazine-2-carboxamide]
IC50: 3 nM

CO[C@H](C)[C@H](NC(=O)c1cnc(C)cn1)c1nc2cc(Br)c(F)cc2n1C [Example 26, N-[(1R,2R)-1-(5-bromo-6-fluoro-1-methyl-1H-1,3-benzodiazol-2-yl)-2-methoxypropyl]-5-methylpyrazine-2-carboxamide]
IC50: 7 nM

Cc1cnc(C(=O)N[C@H](c2nc3cc(F)ccc3n2CC(F)(F)F)C2CC2)cn1 [Example 27, N-[(S)-cyclopropyl[5-fluoro-1-(2,2,2-trifluoroethyl)-1H-1,3-benzodiazol-2-yl]methyl]-5-methylpyrazine-2-carboxamide]
IC50: 5 nM

COCCn1c([C@@H](NC(=O)c2cnc(C)cn2)[C@@H](C)OC(F)F)nc2cc(F)c(F)cc21 [Example 28, N-[(1R,2R)-1-[5,6-difluoro-1-(2-methoxyethyl)-1H-1,3-benzodiazol-2-yl]-2-(difluoromethoxy)propyl]-5-methylpyrazine-2-carboxamide]
IC50: 10 nM

CO[C@H](C)[C@H](NC(=O)c1cnc(C)cn1)c1nc2cc(Cl)ccc2n1C [Example 29, N-[(1R,2R)-1-(5-chloro-1-methyl-1H-1,3-benzodiazol-2-yl)-2-methoxypropyl]-5-methylpyrazine-2-carboxamide]
IC50: 11 nM

Cn1c([C@@H](NC(=O)c2cnc(C(F)F)cn2)C2CC2)nc2cc(F)ccc21 [Example 30, N-[(S)-cyclopropyl (5-fluoro-1-methyl-1H-1,3-benzodiazol-2-yl)methyl]-5-(difluoromethyl)pyrazine-2-carboxamide]
IC50: 18 nM

Cc1cnc(C(=O)N[C@H](c2nc3cc(C(F)(F)F)ccc3n2C)C2CC2)cn1 [Example 31, N-[(S)-cyclopropyl[1-methyl-5-(trifluoromethyl)-1H-1,3-benzodiazol-2-yl]methyl]-5-methylpyrazine-2-carboxamide]
IC50: 6 nM

Cc1cnc(C(=O)N[C@H](c2nc3cc(C(F)(F)F)ccc3n2C)[C@]2(O)CCCOC2)cn1 [Example 32, N-[(R)-[(3R)-3-hydroxyoxaN-3-yl][1-methyl-5-(trifluoromethyl)-1H-1,3-benzodiazol-2-yl]methyl]-5-methylpyrazine-2-carboxamide]
IC50: 16 nM

CCn1c([C@@H](NC(=O)c2cnc(C(F)F)cn2)C2CC2)nc2c(C)c(C#N)ccc21 [Example 33, N-[(S)-(5-cyano-1-ethyl-4-methyl-1H-1,3-benzodiazol-2-yl)(cyclopropyl)methyl]-5-(difluoromethyl)pyrazine-2-carboxamide]
IC50: 4 nM

Cc1cnc(C(=O)N[C@H](c2nc3cc(Br)ccc3n2C)C2CC2)cn1 [Example 34, N-[(S)-(5-bromo-1-methyl-1H-1,3-benzodiazol-2-yl)(cyclopropyl)methyl]-5-methylpyrazine-2-carboxamide]
IC50: 5 nM

COCCn1c([C@@H](NC(=O)c2cnc(C)cn2)C2CC2)nc2cc(C(F)(F)F)ccc21 [Example 35, N-[(S)-cyclopropyl[1-(2-methoxyethyl)-5-(trifluoromethyl)-1H-1,3-benzodiazol-2-yl]methyl]-5-methylpyrazine-2-carboxamide]
IC50: 2 nM

CCn1c([C@@H](NC(=O)c2cnc(C)cn2)C2CC2)nc2cc(C(F)(F)F)ccc21 [Example 36, N-[(S)-cyclopropyl[1-ethyl-5-(trifluoromethyl)-1H-1,3-benzodiazol-2-yl]methyl]-5-methylpyrazine-2-carboxamide]
IC50: 3 nM

Cc1cnc(C(=O)N[C@H](c2nc3cc(F)ccc3n2CC(F)F)C(C)C)cn1 [Example 37, N-[(1S)-1-[1-(2,2-difluoroethyl)-5-fluoro-1H-1,3-benzodiazol-2-yl]-2-methylpropyl]-5-methylpyrazine-2-carboxamide]
IC50: 9 nM

CCn1c([C@@H](NC(=O)c2cnc(C)cn2)C2CC2)nc2c(C)c(C#N)ccc21 [Example 38, N-[(S)-(5-cyano-1-ethyl-4-methyl-1H-1,3-benzodiazol-2-yl)(cyclopropyl)methyl]-5-methylpyrazine-2-carboxamide]
IC50: 5 nM

CCn1c([C@@H](NC(=O)c2cnc(C)cn2)C(C)(C)O)nc2cc(F)ccc21 [Example 39, N-[(1R)-1-(1-ethyl-5-fluoro-1H-1,3-benzodiazol-2-yl)-2-hydroxy-2-methylpropyl]-5-methylpyrazine-2-carboxamide]
IC50: 28 nM

COCCn1c([C@@H](NC(=O)c2cnc(C(F)F)cn2)[C@@H]2CCCO2)nc2cc(OC(F)(F)F)ccc21 [Example 40, 5-(difluoromethyl)-N-[(R)-[1-(2-methoxyethyl)-5-(trifluoromethoxy)-1H-1,3-benzodiazol-2-yl][(2S)-oxolan-2-yl]methyl]pyrazine-2-carboxamide]
IC50: 2 nM

CO[C@H](C)[C@H](NC(=O)c1cnc(C)cn1)c1nc2cc(OC(F)(F)F)ccc2n1CCOC(C)C [Example 41, N-[(1R,2R)-2-methoxy-1-{1-[2-(propan-2-yloxy)ethyl]-5-(trifluoromethoxy)-1H-1,3-benzodiazol-2-yl}propyl]-5-methylpyrazine-2-carboxamide]
IC50: 2 nM

Cc1cnc(C(=O)N[C@H](c2nc3c(Cl)c(Br)ccc3n2C)C2CC2)cn1 [Example 42, N-[(S)-(5-bromo-4-chloro-1-methyl-1H-1,3-benzodiazol-2-yl)(cyclopropyl)methyl]-5-methylpyrazine-2-carboxamide]
IC50: 2 nM

CO[C@H](C)[C@H](NC(=O)c1cnc(C)cn1)c1nc2cc(OC(F)(F)F)ccc2n1C [Example 43, N-[(1R,2R)-2-methoxy-1-[1-methyl-5-(trifluoromethoxy)-1H-1,3-benzodiazol-2-yl]propyl]-5-methylpyrazine-2-carboxamide]
IC50: 10 nM

Cc1cnc(C(=O)N[C@H](c2nc3c(C)c(C#N)ccc3n2CC(F)F)C2CC2)cn1 [Example 44, N-[(S)-[5-cyano-1-(2,2-difluoroethyl)-4-methyl-1H-1,3-benzodiazol-2-yl](cyclopropyl)methyl]-5-methylpyrazine-2-carboxamide]
IC50: 5 nM

Cc1cnc(C(=O)N[C@H](c2nc3c(C)c(C#N)ccc3n2C)C2CC2)cn1 [Example 45, N-[(S)-(5-cyano-1,4-dimethyl-1H-1,3-benzodiazol-2-yl)(cyclopropyl)methyl]-5-methylpyrazine-2-carboxamide]
IC50: 26 nM

CCn1c([C@@H](NC(=O)c2cnc(C)cn2)C2CC2)nc2cc(OC(F)(F)F)ccc21 [Example 46, N-[(S)-cyclopropyl[1-ethyl-5-(trifluoromethoxy)-1H-1,3-benzodiazol-2-yl]methyl]-5-methylpyrazine-2-carboxamide]
IC50: 2 nM

Cc1cnc(C(=O)N[C@H](c2nc3cc(Cl)ccc3n2C)C2CC2)cn1 [Example 47, N-[(S)-(5-chloro-1-methyl-1H-1,3-benzodiazol-2-yl)(cyclopropyl)methyl]-5-methylpyrazine-2-carboxamide]
IC50: 9 nM

COCCn1c([C@@H](NC(=O)c2cnc(C(F)F)cn2)[C@H]2CCOC2)nc2cc(F)ccc21 [Example 48, 5-(difluoromethyl)-N-[(S)-[5-fluoro-1-(2-methoxyethyl)-1H-1,3-benzodiazol-2-yl][(3R)-oxolaN-3-yl]methyl]pyrazine-2-carboxamide]
IC50: 21 nM

CCn1c([C@@H](NC(=O)c2cnc(C)cn2)C2CC2)nc2cc(OC(F)F)ccc21 [Example 49, N-[(S)-cyclopropyl[5-(difluoromethoxy)-1-ethyl-1H-1,3-benzodiazol-2-yl]methyl]-5-methylpyrazine-2-carboxamide]
IC50: 7 nM
